Laboratory results taken from ChEMBL document CHEMBL5532712, “A Screening of 10,240 NatureBank Fractions Identifies Nematicidal Activity in Agelasine-Containing Extracts from Sponges” (J Nat Prod, 2024).

Legend:
[1] = Toxicity in Zebrafish embryo assessed as reduction in viability at 100 uM measured after 24 hrs by microscope based analysis relative to control; set-up: species or system Danio rerio; details: read-out: Activity
[2] = Toxicity in Zebrafish embryo assessed as reduction in viability at 50 uM measured after 24 hrs by microscope based analysis relative to control; set-up: species or system Danio rerio; details: read-out: Activity
Caenorhabditis elegans [3] = test: Nematicidal activity against Caenorhabditis elegans assessed as reduction in larval motility; type: functional, organism-based
Caenorhabditis elegans [4] = test: Nematicidal activity against Caenorhabditis elegans assessed as total paralysis at 100 to 200 uM relative to control; type: functional; details: dose 100-200 µM

Compound | mortality at 24 h, 100 µM [1] [%] | mortality at 24 h, 50 µM [2] [%] | IC50 (Caenorhabditis elegans [3]) [µM] | Activity (Caenorhabditis elegans [4]) [%]
CC1=CC(=O)C[C@@H]2[C@@](C)(CC/C(C)=C/C[n+]3cn(C)c4ncnc(N)c43)[C@H](C)CC[C@@]12C | 100 | 100 | 50 | 100
CC1=CCC[C@@H]2[C@@](C)(CC/C(C)=C/Cn3c[n+](C)c4ncnc(N)c43)[C@H](C)CC[C@@]12C | 100 | 100 |  | 
C=CCCCCCCCCC[C@@H](O)[C@H](C)N [HALAMINOL A] | 66.6 | 100 |  | 
